Like-named read-outs stand apart in the source and are kept apart here.
Legend:
PqsE(WT) [1] = target: T1, PqsE(WT) (Pseudomonas aeruginosa, UniProt P20581); assay: Esterase assay: inhibition of PqsE-catalyzed MU-butyrate hydrolysis; type: biochemical; conditions: for maximum level of inhibition of PqsE(WT): % inhibition
T1 construct: 6xHis (N); made in house; host or cells: E. coli BL21 (DE3)
Experimental: Purified PqsE, diluted in assay buffer (50 mM Tricine, 0.01% Triton X-100, pH 8.5), was added to the wells of an opaque 384-well plate at a final concentration of 125 nM. Test molecules were diluted in DMSO and added to the wells at the indicated concentrations (5% DMSO final). The plate was then incubated at room temperature for 5 min. MU-butyrate in assay buffer was added to the plate at a final concentration of 2 µM. The plate was incubated at room temperature for 20 min prior to measuring fluorescence (excitation: 360 nm and emission: 450 nm) to monitor the hydrolysis of MU-butyrate. All data were plotted in the Prism 9.0 program, and IC50 values were calculated from inhibition curves fit to the data.

PqsE(S285A) [2] = target: T2, PqsE(S285A) (Pseudomonas aeruginosa, UniProt P20581, S285A); assay: Esterase assay: inhibition of MU-butyrate hydrolysis by PqsE(S285A); type: biochemical; conditions: for increase of IC50 against PqsE(S285A) variant versus PqsE(WT): 20 min; for maximum level of inhibition of PqsE(S285A): % inhibition
PqsE(S285W) [3] = target: T3, PqsE(S285W) (Pseudomonas aeruginosa, UniProt P20581, S285W); type: biochemical; conditions: esterase assay
T3 construct: 6xHis (N); made in house; host or cells: E. coli BL21 (DE3)

PqsE(WT) [4] = target: T1, PqsE(WT); assay: Differential scanning fluorimetry (DSF), PqsE(WT); type: binding; conditions: PqsE(WT) 2 µM, compound 100 µM
Experimental: Compounds HJ1, HJ2, and HJ5 were tested for the ability to bind and shift the Tm of purified PqsE and PqsE variants using DSF as described previously with some modifications ([18]). Briefly, compounds in DMSO were diluted in assay buffer (50 mM Tris, 150 mM NaCl, 200 µM MnCl2, pH 8) to achieve a final concentration of 100 µM (1% DMSO). Compound solutions were transferred to the wells of a 96-well PCR plate (ThermoFisher), and control wells were prepared with 1% DMSO (negative control). SYPRO Orange Dye and PqsE solutions were diluted in assay buffer and subsequently added to the wells to reach final concentrations of 7× SYPRO Orange and 2 µM PqsE. Final volume in each well was 80 µL. Plates were sealed with transparent optical adhesive covers (ThermoFisher) prior to measurement of SYPRO Orange fluorescence (ex, 580 nm; em, 623 nm) in a QuantStudio 3 Real-Time PCR system (ThermoFisher) over an increasing temperature gradient from 25 to 90°C (temperature increased at a rate of 0.1°C/s). Tm was determined from first derivative plots of the raw fluorescence curves using the Prism 9.0 software.

PqsE(E280A) = target: T4, PqsE(E280A) (Pseudomonas aeruginosa, UniProt P20581, E280A); type: binding; conditions: PqsE(E280A) 2 µM, compound 100 µM
T4 construct: made in house

PqsE(E182W) = target: T5, PqsE(E182W) (Pseudomonas aeruginosa, UniProt P20581, E182W); type: binding; conditions: PqsE(E182W) 2 µM, compound 100 µM
T5 construct: made in house

PqsE(E182W/E280A) = target: T6, PqsE(E182W/E280A) (Pseudomonas aeruginosa, UniProt P20581, E182W/E280A); type: binding; conditions: PqsE(E182W/E280A) 2 µM, compound 100 µM
T6 construct: made in house

PqsE(S285W) [5] = target: T3, PqsE(S285W); type: binding; conditions: compound 100 µM; for Tm of PqsE-HJ complex / ∆Tm, shift in melting temperature vs DMSO-treated control: PqsE(S285W) 2 µM; for significance of shift in Tm compared to HJ2: PqsE(S285W)
PqsE(S285A) [6] = target: T2, PqsE(S285A); assay: Differential scanning fluorimetry (DSF), PqsE(S285A); type: binding; conditions: compound 100 µM; for Tm of PqsE-HJ complex / ∆Tm, shift in melting temperature vs DMSO-treated control: PqsE(S285A) 2 µM; for significance of shift in Tm compared to HJ2: PqsE(S285A)
PqsE(E182A) = target: T7, PqsE(E182A) (Pseudomonas aeruginosa, UniProt P20581, E182A); type: binding; conditions: PqsE(E182A) 2 µM, compound 100 µM
T7 construct: made in house

PqsE(S285D) = target: T8, PqsE(S285D) (Pseudomonas aeruginosa, UniProt P20581, S285D); type: binding; conditions: PqsE(S285D) 2 µM, compound 100 µM
T8 construct: made in house

PqsE(S285Y) = target: T9, PqsE(S285Y) (Pseudomonas aeruginosa, UniProt P20581, S285Y); type: binding; conditions: PqsE(S285Y) 2 µM, compound 100 µM
T9 construct: made in house

[7] = system: wild-type P. aeruginosa PA14; assay: Pyocyanin assay, wild-type strain; type: cell-based, Pseudomonas aeruginosa
Experimental: P. aeruginosa PA14 cultures were grown overnight in LB at 37°C with shaking. The saturated cultures were then diluted 1:1,000 into fresh LB containing test molecules in DMSO (final 1% DMSO). Cultures then grew for ~17 h at 37°C with shaking at 200 rpm. Next, 1 mL of each culture was collected and pelleted by centrifugation at 13,000 rpm for 3 min. The supernatant was carefully transferred to a cuvette, and the OD695 was measured in a Genesys 20 ThermoSpectronic spectrophotometer. The cell pellet was resuspended in 1 mL of PBS and then transferred into the wells of a clear 96-well plate at 100 µL per well. The OD600 was measured to assess cell density. Pyocyanin production (OD695) of the supernatants was normalized to cell density (OD600 of the resuspended cell pellets).

[8] = system: P. aeruginosa PA14 pqsE(S285W) mutant strain; type: cell-based; conditions: 50 or 100 µM
PqsE-RhlR interaction = target: T10, PqsE-RhlR interaction (Pseudomonas aeruginosa, UniProt P20581); assay: PqsE-RhlR in vitro pull-down; type: binding; conditions: up to 100 µM, 1 µM 6xHis-PqsE(WT), RhlR-containing lysate
T10 construct: made in house; host or cells: Escherichia coli (PqsE purified; RhlR as crude lysate from a pET23a-rhlR strain grown with mBTL)
Experimental: RhlR was expressed following a previously established method ([18], [19]). Briefly, lysate was prepared from cultures of an Escherichia coli strain carrying rhlR on a pET23a plasmid that had been treated with the RhlR-solubilizing ligand, mBTL ([33]). The pull-down assay was conducted following a previously established method with some modifications ([18]). Briefly, purified 6xHis-PqsE(WT) was incubated with test molecules at the specified concentrations for 10 min at room temperature. The treated PqsE was then added to 100 µL of RhlR-containing lysate in lysis buffer (50 mM Tris-HCl, 150 mM NaCl, 20 mM imidazole, pH = 8.0) to a total final volume of 150 µL and a final PqsE concentration of 1 µM (final 0.6% DMSO). The mixtures were incubated at 4°C with rotation for 30 min before MagneHis Ni resin (Promega) was added (10 µL of settle volume), and incubation at 4°C with rotation was continued for 1 h. The Ni resin was then washed three times with lysis buffer, and then PqsE complexes were eluted with 50 µL elution buffer (50 mM Tris-HCl, 150 mM NaCl, 500 mM imidazole, pH = 8.0). The eluted proteins were then denatured in Laemmli sample buffer at 95°C and analyzed by SDS-PAGE.

PqsE(WT) [9] = target: T1, PqsE(WT); conditions: 10 min trypsin

SMILES	maximum level of inhibition of PqsE(WT) (PqsE(WT) [1])	increase of IC50 against PqsE(S285A) variant versus PqsE(WT) (PqsE(S285A) [2])	Tm of PqsE-HJ complex (PqsE(WT) [4])	∆Tm, shift in melting temperature vs DMSO-treated control (PqsE(WT) [4])	Tm of PqsE-HJ complex (PqsE(E280A))	∆Tm, shift in melting temperature vs DMSO-treated control (PqsE(E280A))	Tm of PqsE-HJ complex (PqsE(E182W))	∆Tm, shift in melting temperature vs DMSO-treated control (PqsE(E182W))	Tm of PqsE-HJ complex (PqsE(E182W/E280A))	∆Tm, shift in melting temperature vs DMSO-treated control (PqsE(E182W/E280A))	Tm of PqsE-HJ complex (PqsE(S285W) [5])	∆Tm, shift in melting temperature vs DMSO-treated control (PqsE(S285W) [5])	Tm of PqsE-HJ complex (PqsE(S285A) [6])	∆Tm, shift in melting temperature vs DMSO-treated control (PqsE(S285A) [6])	Tm of PqsE-HJ complex (PqsE(E182A))	∆Tm, shift in melting temperature vs DMSO-treated control (PqsE(E182A))	Tm of PqsE-HJ complex (PqsE(S285D))	∆Tm, shift in melting temperature vs DMSO-treated control (PqsE(S285D))	Tm of PqsE-HJ complex (PqsE(S285Y))	∆Tm, shift in melting temperature vs DMSO-treated control (PqsE(S285Y))	further results
CC(C)(C)OC(=O)Nc1ccc(NC(=O)c2cccc3cn[nH]c23)cc1 [HJ1]	100%	approximately 10 fold	70.5 °C	3.56 °C	68.8 °C	2.28 °C	74.4 °C	0.98 °C	72.4 °C	2.58 °C	66.8 °C	0.07 °C	68.1 °C	0.81 °C	70.1 °C	0.50 °C	67.2 °C	0.35 °C	68.3 °C	0.54 °C	maximum level of inhibition of PqsE(S285A) (PqsE(S285A) [2]): ~ 70%; effect of S285W substitution on binding/inhibition (PqsE(S285W) [3]): completely abrogated binding; significance of shift in Tm compared to HJ2 (PqsE(S285W) [5]): neither HJ1 nor HJ5 induced significant shifts in Tm; significance of shift in Tm compared to HJ2 (PqsE(S285A) [6]): neither HJ1 nor HJ5 induced significant shifts in Tm; effect on pyocyanin production ([7]; pqsE(WT) strain, up to 100 µM): no appreciable effect; effect on pyocyanin production [8]: no appreciable effect; effect on PqsE-RhlR complex formation (PqsE-RhlR interaction): neither HJ1 nor HJ5 showed any effect on complex formation
Cc1ccc(C(=O)Nc2ccc(NC(=O)OC(C)(C)C)cc2)c2[nH]ncc12 [HJ5]	~ 50%	approximately 10 fold	68.8 °C	1.82 °C	67.7 °C	1.21 °C	75.5 °C	2.05 °C	71.9 °C	2.12 °C	67.5 °C	0.74 °C	68.6 °C	1.35 °C	70.6 °C	1.00 °C	67.3 °C	0.48 °C	68.2 °C	0.40 °C	IC50 (PqsE(WT) [1]): 379 nM; maximum level of inhibition of PqsE(S285A) (PqsE(S285A) [2]): approximately 10%; effect of S285W substitution on binding/inhibition (PqsE(S285W) [3]): completely abrogated binding; significance of shift in Tm compared to HJ2 (PqsE(S285W) [5]): neither HJ1 nor HJ5 induced significant shifts in Tm; significance of shift in Tm compared to HJ2 (PqsE(S285A) [6]): neither HJ1 nor HJ5 induced significant shifts in Tm; decrease in pyocyanin production compared to DMSO-treated WT strain ([7]; 100 µM, WT strain, ~17 h): ~ 37%; inhibition at 50 µM ([7]; Pseudomonas aeruginosa, PA14, 50 µM, WT strain, ~17 h, read-out: inhibition of pyocyanin production compared to DMSO-treated WT strain): ~30%; effect on PqsE-RhlR complex formation (PqsE-RhlR interaction): neither HJ1 nor HJ5 showed any effect on complex formation; band intensity of undigested protein (band 1) after trypsin exposure (PqsE(WT) [9]; increasing concentrations up to 100 µM): increases as the concentration of HJ5 increases; induction of PqsE(E182W)-like banding pattern (conformational change) upon tryptic digest (PqsE(WT) [9]; up to 100 µM, 10 µM PqsE(WT)): did not produce a banding pattern similar to that of PqsE(E182W)
Cc1n[nH]c2c(C(=O)Nc3ccc(NC(=O)OC(C)(C)C)cc3)cccc12 [HJ2]	–	–	67.7 °C	0.74 °C	67.1 °C	0.61 °C	73.9 °C	0.48 °C	70.0 °C	0.20 °C	66.8 °C	0.07 °C	67.9 °C	0.61 °C	69.2 °C	-0.47 °C	67.0 °C	0.14 °C	68.2 °C	0.41 °C	inhibitory activity on enzymatic activity of PqsE (PqsE(WT) [1]; esterase assay, dilution series): virtually no effect
CC(C)(C)CNC(=O)Nc1ccc(NC(=O)c2cccc3cn[nH]c23)cc1 [BB584, reference compound]	–	–	–	–	–	–	–	–	–	–	–	–	–	–	–	–	–	–	–	–	IC50 (PqsE(WT) [1]; 125 nM PqsE, 2 µM MU-butyrate, pH 8.5, read-out: IC50, inhibition of PqsE enzyme function (MU-butyrate hydrolysis)): 108 nM

From article PMC13203959, “New inhibitors of the Pseudomonas aeruginosa enzyme, PqsE, and methods assessing their potential to induce a conformational change via active site binding” (mSphere, 2026)
